Assays:
N. meningitidis = assay: Challenge of immunized mice with N. meningitidis strain expressing matching TbpB (sepsis model); assay type: in vivo, C57BL/6NCrl mice; conditions: TbpB with adjuvant as opposed to TbpB alone
Method: (§1) FIG. 38: 6-week-old male C57BL/6NCrl mice were immunized with TbpB originating from group B N. meningitidis, purified from recombinant E. coli. All groups were immunized with 25 μg of TbpB with or without adjuvant, in a total volume of 30 μL intramuscularly: TbpB alone, TbpB+alum, and TbpB+HBP (200 μg). Three doses were given: D0, D21, and D28. Serum was collected at D0 prior to immunization, D14, D28, and D35 and then examined by ELISA for IgG titers to TbpB (FIG. 38A). Mice were challenged on D36 with 5×10^7 of N. meningitidis strain expressing the homologous TbpB. Mice were injected with human transferrin (200 μL of 8 mg/mL) as this is critical for the development of sepsis in this model. Mice were monitored at the 1 h, 12 h, 18 h, 24 h, and 36 h time points. At 1 h, blood was collected to enumerate CFUs (FIG. 38B). Clinical scores were collected at 12 h post challenge (FIG. 38C).
(§2) HBP can act as an adjuvant. 6-week-old male C57BL/6NCrl mice were immunized with TbpB originating from group B N. meningitidis, purified from recombinant E. coli. All groups were immunized with 25 μg of TbpB with or without adjuvant, in a total volume of 30 μL intramuscularly TbpB, TbpB+alum, and TbpB+HBP (equimolar to 200 μg). Three doses were given: D0, D21, D28. […] Mice were monitored at the 1 h, 12 h, 18 h, 24 h, and 36 h time points. […]

[1] = test system: TbpB originating from group B N. meningitidis; assay: Adjuvant test: mice immunized with TbpB, serum IgG titers to TbpB by ELISA; assay type: in vivo, C57BL/6NCrl mice; conditions: 25 μg TbpB with adjuvant intramuscularly, doses D0, D21, D28; serum D14, D28, D35; compared with TbpB alone and TbpB+alum; FIG. 38A
Method: as §1, §2

THP-1 cells = assay: IL-8 ELISA after stimulation of human macrophage cells (THP-1); assay type: cell-based; conditions: THP-1, 30 μM or 150 μM synthetic compound, 20 minutes with digitonin, then 6 hours; FIG. 37
Method: (§3) FIG. 37: Stimulation of human macrophages by compounds/products according to the invention. Human macrophage cells (THP-1) were stimulated for 20 minutes in permeabilization buffer (5 μg/mL digitonin) in the presence of water, 39.8 μM of the Nod1 agonist C12-iE-DAP (which stimulates in a TIFA-independent manner), or either 30 μM or 150 μM of synthetic compound according to the invention. Treatment was removed, cells were washed, and cells were incubated for 6 hours in complete media before the IL-8 levels in culture supernatants were measured by ELISA. The results are the mean and standard error of the mean of three technical replicates. Nod1 agonist: C12-iE-DAP (20 μg/mL, 39.8 μM); HBP: D-glycero-1-D-manno-heptose-1β,7-bi-phosphate.
as §3, with “Stimulation” for “FIG. 37: Stimulation”, “ELISA (FIG. 37).” for “ELISA.”, “Nod1 agonist: C12-iE-DAP (20 μg/mL, 39.8 μM); HBP: D-glycero-1-D-manno-heptose-1β,7-bi-phosphate.” left out

HCT 116 cells = assay: IL-8 ELISA after stimulation of human colonic epithelial cells (HCT 116, WT or TIFA KO); assay type: cell-based; conditions: 10 μg/mL synthetic compound, 20 minutes with digitonin, then 6 hours, FIG. 36
Method: (§4) FIG. 36: Stimulation of human colonic epithelial cells by compounds/products according to the invention. Human colonic epithelial cells (HCT 116) that were either wild type (WT) or deficient in TIFA protein expression (knockout, KO) were stimulated for 20 minutes in permeabilization buffer (5 μg/mL digitonin) in the presence of culture supernatant from N. meningitidis mutants with (gmhB) or without (hldA) HBP or 10 μg/mL of synthetic compound according to the invention. Treatment was removed, cells were washed, and cells were incubated for 6 hours in complete media and IL-8 levels in culture supernatants were measured by ELISA. The results are mean of technical duplicates.
as §4, with “Human” for “FIG. 36: Stimulation of human colonic epithelial cells by compounds/products according to the invention. Human”, “results obtained are illustrated in FIG. 36. They” for “results”

[2] = test system: NF-κB-driven luciferase reporter in HEK 293T cells; assay: NF-κB-driven luciferase reporter assay in HEK 293T cells; assay type: cell-based; conditions: 20 μg/mL synthetic compound, 20 minutes in permeabilization buffer (5 μg/mL digitonin), then 3.5 hours in complete medium; FIG. 35
Method: (§5) FIG. 35: Effects of compounds/products according to the invention on HEK 293T cells encoding an NF-κB-driven luciferase reporter gene. HEK 293T cells were transfected with a plasmid encoding an NF-κB-driven luciferase reporter. After 24 hours, cells were stimulated for 20 minutes in permeabilization buffer (5 μg/mL digitonin) in the presence of culture supernatant from N. meningitidis mutants with (gmhB) or without (hldA) HBP or 20 μg/mL of synthetic compounds according to the invention. Treatment was removed; cells were washed and incubated for 3.5 hours in complete medium. A luciferase assay was then performed. The results are mean of technical triplicates.
as §5, with “HEK” for “FIG. 35: Effects of compounds/products according to the invention on HEK 293T cells encoding an NF-κB-driven luciferase reporter gene. HEK”, “compound” for “compounds”, “results obtained are illustrated in FIG. 35. They” for “results”

`O=P(O)(O)OC[C@@H](O)[C@H]1O[C@@H](OP(=O)(O)O)[C@@H](O)[C@@H](O)[C@@H]1O` [HBP, D-glycero-D-manno-heptopyranose 1β,7-bisphosphate] was tested, and the clinical scores (N. meningitidis; challenge D36, 12 h post challenge, FIG. 38C) was “lower”, the “bacterial burden (CFU in blood)” value (N. meningitidis; challenge D36 with 5×10^7 N. meningitidis, blood at 1 h, FIG. 38B) was “reduced” and the “IgG titers to TbpB” value [1] was “significantly higher than administration of TbpB alone and greater than observed with alum as the adjuvant”. The “cytokine expression (IL-8 levels in culture supernatants)” value (THP-1 cells) was “can drive cytokine expression in vitro”, the “cytokine expression (IL-8 levels in culture supernatants)” value (HCT 116 cells) was “can drive cytokine expression in vitro” and the “NF-κB stimulation (luciferase assay)” value [2] was “can immunomodulate via NF-κB stimulation in vitro”.
